The record followed here is patent US20230091225A1, “Bifunctional chimeric heterocyclic compounds for targeted degradation of androgen receptors and use thereof” (HINOVA PHARMACEUTICALS INC., priority 2019, published 2023).

The assay addresses T1, androgen receptor (AR) (Homo sapiens, UniProt P10275).
T1 sequence (P10275 1-920): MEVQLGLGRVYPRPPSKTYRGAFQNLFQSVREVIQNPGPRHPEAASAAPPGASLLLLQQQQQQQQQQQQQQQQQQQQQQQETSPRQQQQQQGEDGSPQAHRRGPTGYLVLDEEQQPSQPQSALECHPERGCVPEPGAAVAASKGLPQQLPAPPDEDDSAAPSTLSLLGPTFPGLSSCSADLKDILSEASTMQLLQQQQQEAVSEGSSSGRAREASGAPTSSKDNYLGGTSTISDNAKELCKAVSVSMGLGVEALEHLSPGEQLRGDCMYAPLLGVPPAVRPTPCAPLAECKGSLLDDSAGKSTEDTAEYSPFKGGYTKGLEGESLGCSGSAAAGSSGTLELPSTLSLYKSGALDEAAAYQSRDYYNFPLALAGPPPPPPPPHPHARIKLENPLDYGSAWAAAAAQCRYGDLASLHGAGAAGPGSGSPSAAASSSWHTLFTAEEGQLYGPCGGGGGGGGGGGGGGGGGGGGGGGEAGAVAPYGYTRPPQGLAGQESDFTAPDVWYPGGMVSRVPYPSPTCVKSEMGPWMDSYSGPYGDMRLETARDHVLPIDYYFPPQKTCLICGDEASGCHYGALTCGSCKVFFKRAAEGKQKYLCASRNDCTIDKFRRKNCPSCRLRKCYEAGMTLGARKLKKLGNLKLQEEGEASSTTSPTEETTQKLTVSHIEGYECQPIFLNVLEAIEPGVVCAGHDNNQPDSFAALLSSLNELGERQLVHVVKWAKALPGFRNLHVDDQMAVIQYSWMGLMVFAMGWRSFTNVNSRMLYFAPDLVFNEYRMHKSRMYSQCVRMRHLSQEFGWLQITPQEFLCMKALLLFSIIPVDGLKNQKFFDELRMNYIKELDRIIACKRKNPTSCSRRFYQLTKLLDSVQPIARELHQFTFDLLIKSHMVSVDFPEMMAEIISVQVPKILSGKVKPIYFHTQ
Kind of assay: Degradation of androgen receptor (AR) protein in VCaP cells by Western blot. The format is cell-based. As to the method:
Determination of the Degradation Activity of the Compound on Androgen Receptor (AR) Protein by Western Blot
1) VCaP cells were subcultured in cell culture media, and then the cells in good growth condition were seeded in a 12-well plate at 1 ml/well (5×10^5 cells/well), and cultured overnight in a 37° C., 5% CO2 cell incubator. 2) The test compound was prepared into a 10 mM stock solution with dimethyl sulfoxide (DMSO). Prior to use, the solution was diluted 3 times with DMSO. […] of the diluted compound solution was added to the cell culture well (ensuring that the DMSO concentration in the culture system was 0.1%), and two wells were set for each concentration. The plate was gently shaken to mix. In addition, the experiment included negative control wells (containing equal amount of DMSO) and positive control wells. 3) After culturing 16 h. the cells were lysed with RIPA cell lysate, and the protein was extracted. The protein concentration was measured with BCA kit. 5-fold concentrated protein loading buffer was added, and after heated at 100° C. for 5 min. the sample was stored at −20° C. 4) for each well, 30 μg of protein was loaded on polyacrylamide gel for electrophoresis. 5) The protein was transferred from polyacrylamide gel to PVDF membrane, and then 5% skim milk was added to close for 1 h at room temperature. The first antibody (Androgen Receptor (D6F11) XP Rabbit mAb and Anti-β-Actin Rabbit mAb) was added and incubated overnight at 4° C. The membrane was washed with TBST solution three times. 10 min for each time. The secondary antibody (horseradish peroxidase labeled goat […]) was added and incubated at room temperature for 2 h, and then the membrane was washed with TBST solution three times. 10 min for each time.
Finally, ECL chemiluminescence solution was added, and then photos were taken with automatic chemiluminescence instrument to collect pictures for analysis.
(Immunoblotting shows a protein as a band on a membrane.)

Where [1] appears, read: percentage of degraded AR at 100 nM, VCaP cells, 16 h.

Molecules are shown by their SMILES.

Turning to `N#Cc1ccc(O[C@H]2CC[C@H](NC(=O)c3cnc(N4CCC(N5CC6CN(c7ccc8c(c7)C(=O)N(C7CCC(=O)NC7=O)C8=O)CC6C5)CC4)cn3)CC2)cc1Cl` (stereo partly drawn) [Compound 63, N-((1r,4r)-4-(3-chloro-4-cyanophenoxy)cyclohexyl)-5-(4-(5-(2-(2,6-dioxopiperidin-3-yl)-1,3-dioxoisoindolin-5-yl)hexahydropyrrolo[3,4-c]pyrrol-2(1H)-yl)piperidin-1-yl)pyrazine-2-carboxamide], the inhibition – broadly, the change of the read-out against control, counted positive when it falls – at 0.1 µM under setting [1] is 50 to 79%.

`N#Cc1ccc(O[C@H]2CC[C@H](NC(=O)c3cnc(N4CCC(N5CC6CN(c7cc8c(cc7F)C(=O)N(C7CCC(=O)NC7=O)C8=O)CC6C5)CC4)cn3)CC2)cc1Cl` (stereo partly drawn) [Compound 64, N-((1r,4r)-4-(3-chloro-4-cyanophenoxy)cyclohexyl)-5-(4-(5-(2-(2,6-dioxopiperidin-3-yl)-6-fluoro-1,3-dioxoisoindolin-5-yl)hexahydropyrrolo[3,4-c]pyrrol-2(1H)-yl)piperidin-1-yl)pyrazine-2-carboxamide] yielded an inhibition at 0.1 µM under setting [1] of 50 to 79%. With `N#Cc1ccc(O[C@H]2CC[C@H](NC(=O)c3ccc(N4CC5CN(C6CCN(c7cc8c(cc7F)C(=O)N(C7CCC(=O)NC7=O)C8=O)CC6)CC5C4)nn3)CC2)cc1Cl` (stereo partly drawn) [Compound 67], the inhibition at 0.1 µM under setting [1] was < 25%. Regarding `N#Cc1ccc(O[C@H]2CC[C@H](NC(=O)c3cnc(N4CC5CN(C6CCN(c7ccc8c(c7)C(=O)N(C7CCC(=O)NC7=O)C8=O)CC6)CC5C4)cn3)CC2)cc1Cl` (stereo partly drawn) [Compound 69, N-((1r,4r)-4-(3-chloro-4-cyanophenoxy)cyclohexyl)-5-(5-(1-(2-(2,6-dioxopiperidin-3-yl)-1,3-dioxoisoindolin-5-yl)piperidine-4-yl)hexahydropyrrolo[3,4-c]pyrrol-2(1H)-yl)pyrazine-2-carboxamide], under setting [1], the inhibition at 0.1 µM was < 25%. Still for that read-out and setting: the result for `N#Cc1ccc(O[C@H]2CC[C@H](NC(=O)c3ccc(N4CCC5(CC4)CN(C4CCN(c6cc7c(cc6F)C(=O)N(C6CCC(=O)NC6=O)C7=O)CC4)C5)nn3)CC2)cc1Cl` (stereo partly drawn) [Compound 71] reads > 80%. Under setting [1], `CC1(C)[C@H](NC(=O)c2ccc(N3CC4CN(C5CCN(c6cc7c(cc6F)C(=O)N(C6CCC(=O)NC6=O)C7=O)CC5)CC4C3)nn2)C(C)(C)[C@H]1Oc1ccc(C#N)c(Cl)c1` (stereo partly drawn) [Compound 72, N-((1r,3r)-3-(3-chloro-4-cyanophenoxy)-2,2,4,4-tetramethylcyclobutyl)-6-(5-(1-(2-(2,6-dioxopiperidin-3-yl)-6-fluoro-1,3-dioxoisoindolin-5-yl)piperidine-4-yl)hexahydropyrrolo[3,4-c]pyrrol-2(1H)-yl)pyridazine-3-formamide] yielded an inhibition at 0.1 µM of 25 to 49%. `N#Cc1ccc(OC2CCC(NC(=O)c3cnc(N4CCC(NC5CCN(c6cc7c(cc6F)C(=O)N(C6CCC(=O)NC6=O)C7=O)CC5)CC4)cn3)CC2)cc1Cl` (stereo not drawn) [Compound 73, N-((1r,4r)-4-(3-chloro-4-cyanophenoxy)cyclohexyl)-5-(4-((1-(2,6-dioxopiperidin-3-yl-6-fluoro-1,3-dioxoisoindolin-5-yl)piperidine-4-yl)amino)piperidin-1-yl)pyrazine-2-carboxamide]: under setting [1], the “% degradation” value is given as “A (>80%)”. As to `N#Cc1ccc(O[C@H]2CC[C@H](NC(=O)c3ccc(N4CCC5(CC4)CN(C4CCN(c6ccc7c(c6)C(=O)N(C6CCC(=O)NC6=O)C7=O)CC4)C5)nn3)CC2)cc1Cl` (stereo partly drawn) [Compound 74], the inhibition at 0.1 µM under setting [1] was > 80%. Regarding `N#Cc1ccc(O[C@H]2CC[C@H](NC(=O)c3cnc(N4CCN(C[C@@H]5[C@H]6CN(c7cc8c(cc7F)C(=O)N(C7CCC(=O)NC7=O)C8=O)C[C@@H]56)CC4)cn3)CC2)cc1Cl` (stereo partly drawn) [Compound 99], under “FIG. 1”, the “degradation activity on AR at different concentrations” value is on record as “concentration-dependent manner”. Turning to `N#Cc1ccc(O[C@H]2CC[C@H](NC(=O)c3ccc(N4CC5CN(C[C@@H]6[C@H]7CN(c8ccc9c(c8)C(=O)N(C8CCC(=O)NC8=O)C9=O)C[C@@H]67)CC5C4)nn3)CC2)cc1Cl` (stereo partly drawn) [Compound 100], the inhibition at 0.1 µM under setting [1] was in the range of 50 to 79%. In turn, `CC1(C)[C@H](NC(=O)c2ccc(N3CCN(C[C@@H]4[C@H]5CN(c6cc7c(cc6F)C(=O)N(C6CCC(=O)NC6=O)C7=O)C[C@@H]45)CC3)nn2)C(C)(C)[C@H]1Oc1ccc(C#N)c(Cl)c1` (stereo partly drawn) [Compound 101] displayed an inhibition at 0.1 µM under setting [1] of 25 to 49%. Under setting [1], `N#Cc1ccc(O[C@H]2CC[C@H](NC(=O)c3ccc(N4CCN(C[C@@H]5[C@H]6CN(c7ccc8c(c7)C(=O)N(C7CCC(=O)NC7=O)C8=O)C[C@@H]56)CC4)nn3)CC2)cc1Cl` (stereo partly drawn) [Compound 102] showed an inhibition at 0.1 µM of 50 to 79%.

For `N#Cc1ccc(O[C@H]2CC[C@H](NC(=O)c3ccc(N4CCC(N5CC6(CCN(c7cc8c(cc7F)C(=O)N(C7CCC(=O)NC7=O)C8=O)C6)C5)CC4)nn3)CC2)cc1Cl` (stereo partly drawn) [Compound 103, N-((1r,4r)-4-(3-chloro-4-cyanophenoxy)cyclohexyl)-6-(4-(6-(2-(2,6-dioxopiperidin-3-yl)-6-fluoro-1,3-dioxoisoindolin-5-yl)-2,6-diazaspiro[3.4]octane-2-yl)piperidin-1-yl)pyridazine-3-formamide], the inhibition at 0.1 µM under setting [1] is > 80%. On the same count and under the same terms, the result for `N#Cc1ccc(O[C@H]2CC[C@H](NC(=O)c3nnc(N4CC5(CCN(CC6CCN(c7ccc8c(c7)C(=O)N(C7CCC(=O)NC7=O)C8=O)CC6)CC5)C4)s3)CC2)cc1Cl` (stereo partly drawn) [Compound 105, N-((1r,4r)-4-(3-chloro-4-cyanophenoxy)cyclohexyl)-5-(7-((1-(2-(2,6-dioxopiperidin-3-yl)-1,3-dioxoisoindolin-5-yl)piperidine-4-yl)methyl)-2,7-diazaspiro[3.5]nonan-2-yl)-1,3,4-thiadiazole-2-carboxamide] reads 50 to 79%. Same read-out and setting: the result for `N#Cc1ccc(OC2CC3(CC(NC(=O)c4ccc(N5CCC(CN6CCN(c7ccc8c(c7)C(=O)N(C7CCC(=O)NC7=O)C8=O)CC6)CC5)nn4)C3)C2)cc1Cl` (stereo not drawn) [Compound 109] reads < 25%.

Regarding `N#Cc1ccc(O[C@H]2CC[C@H](NC(=O)c3ccc(N4CCC(O[C@@H]5CCN(c6ccc7c(c6)C(=O)N(C6CCC(=O)NC6=O)C7=O)C5)CC4)cc3)CC2)cc1Cl` (stereo partly drawn) [Compound 111], under setting [1], the inhibition at 0.1 µM was < 25%. For the molecule `N#Cc1ccc(O[C@H]2CC[C@H](NC(=O)c3ccc(N4CCC(NC5CCN(c6ccc7c(c6)C(=O)N(C6CCC(=O)NC6=O)C7=O)CC5)CC4)nn3)CC2)cc1Cl` (stereo partly drawn) [Compound 118, N-((1r,4r)-4-(3-chloro-4-cyanophenoxy)cyclohexyl)-6-(4-((1-(2-(2,6-dioxopiperidin-3-yl)-1,3-dioxoisoindolin-5-yl)piperidine-4-yl)amino)piperidin-1-yl)pyridazine-3-amide], the inhibition at 0.1 µM under setting [1] is 25 to 49%. `N#Cc1ccc(OC2CC3(C2)CN(C(=O)c2ccc(N4CCC(CN5CCN(c6ccc7c(c6)C(=O)N(C6CCC(=O)NC6=O)C7=O)CC5)CC4)nn2)C3)cc1Cl` (stereo not drawn) [Compound 120, 2-chloro-4-((2-(6-(4-((4-(2-(2,6-dioxopiperidin-3-yl)-1,3-dioxoisoindolin-5-yl)piperazin-1-yl)methyl)piperidin-1-yl)pyridazine-3-carbonyl)-2-azaspiro[3.3]heptan-6-yl)oxy)benzonitrile]: under setting [1], the inhibition at 0.1 µM was < 25%. With `N#Cc1ccc(O[C@H]2CC[C@H](NC(=O)c3ccc(N4CC(CN5CC6CN(c7cc8c(cc7F)C(=O)N(C7CCC(=O)NC7=O)C8=O)CC6C5)C4)nn3)CC2)cc1Cl` (stereo partly drawn) [Compound 137], the inhibition at 0.1 µM under setting [1] lay within 50 to 79%. In turn, `N#Cc1ccc(O[C@H]2CC[C@H](NC(=O)c3cnc(N4CC(CN5CC6CN(c7cc8c(cc7F)C(=O)N(C7CCC(=O)NC7=O)C8=O)CC6C5)C4)cn3)CC2)cc1Cl` (stereo partly drawn) [Compound 138] gave an inhibition at 0.1 µM under setting [1] of 25 to 49%. On to `N#Cc1ccc(O[C@H]2CC[C@H](NC(=O)c3ccc(N4CCC(CN5CCC(Nc6cc7c(cc6F)C(=O)N(C6CCC(=O)NC6=O)C7=O)CC5)CC4)nn3)CC2)cc1Cl` (stereo partly drawn) [Compound 139], for which the inhibition at 0.1 µM under setting [1] is > 80%.
